These results are taken from patent US11953435B2, “Zinc-responsive fluorophores” (Northwestern University, priority 2019, dated 2024).

SMILES strings stand for the structures. “And” between values parts separate entries of the source, which are not always exact repeats. Equal values may be shown once.

The data set can be described thus: Photophysical properties in aqueous buffer (UV-visible, fluorescence, quantum yield, extinction coefficient). The format is physicochemical. The conditions noted are these: for λAbs (max) / λEm (max): aqueous buffer pH 7.2; for Extinction Coefficient (ε) / Quantum Yield (Φ): 50 nM to 250 nM probe; for fluorescence turn-on in the presence of zinc: aqueous buffered solutions; for turn-on ratio / increase in brightness in response to zinc: holo vs apo. Here is the method: Aqueous solutions were prepared by using de-ionized water with resistivity […], obtained using a Milli-Q water purification system. In order to properly compare the photophysical properties of ZincBY-2, ZincBY-3, and ZincBY-4 to ZincBY-1, the photophysical properties of ZincBY-1 we remeasured. […] Stock solutions of ZincBY-1, ZincBY-2, ZincBY-3, and ZincBY-4 were prepared at concentrations of 5 mM and stored at −20° C. in aliquots that were used immediately after thawing for each experiment. Unless otherwise stated, all spectroscopic methods were conducted in aqueous buffer containing 50 mM HEPES (pH 7.2) and 0.1 M KNO3. UV-visible spectra were acquired on a PerkinElmer Lambda 650 UV/Vis spectrophotometer using quartz cuvettes from Starna (1 cm path length, 10 cm path length used in extinction coefficient and quantum yield determination). Fluorescence spectra were acquired using a PerkinElmer LS 55 fluorescence spectrophotometer. For measurements containing zinc, 99.0% ZnNO3 hexahydrate (final concentration 5 μM) was used. For experiments analyzing apo probes, N,N,N′,N′-Tetrakis(2-pyridylmethyl)ethylenediamine (TPEN) (final concentration 5 μM) was added to solution. Quantum Yield and Extinction Coefficient Determination. Quantum yields for apo and holo ZincBY-1, ZincBY-2, ZincBY-3, and ZincBY-4 were determined by plotting absorbance vs. fluorescence intensity of solutions containing ZincBY-1, ZincBY-2, ZincBY-3, or ZincBY-4 at probe concentrations ranging from 50-250 nM. Serial dilution was used to make solutions at different concentrations. Fluorescein dissolved in 0.1 N NaOH was used as the quantum yield standard, using a literature-determined quantum yield of 0.95.^3 For all fluorophore solutions, fluorescence excitation was set at 490 nm and fluorescence emission was integrated from 510 nm to 650 nm. Zinc Dissociation Constant. Fluorescence spectra were recorded using zinc probes (ZincBY-1, ZincBY-2, ZincBY-3, or ZincBY-4; 200 nM) and ZnSO4 (various concentrations). The solutions were equilibrated in the dark for 1 h prior to measurement. The concentration of ZnSO4 was varied from 1 μM to 9 mM in buffer solution (50 mM HEPES and 0.1 M KNO3, and pH 7.2) containing 10 mM EGTA. Free Zn^2+ was calculated according to a previously reported method (Ref. B4; incorporated by reference in its entirety). Data was fit to the following one-site binding equation: F=(FminKd+Fmax[Zn^2+])/(Kd+[Zn^2+]) pH Response. The fluorescence spectra of zinc probes (ZincBY-2, ZincBY-3, or ZincBY-4; 200 nM) wasere measured at various pH values (4.5-11). The following buffers were used at 50 mM concentration with 0.1 M KNO3: NaOAc/AcOH (pH 4.0-4.5), MES (pH 5.0-6.5), HEPES (pH 7.0-8.0), CHES (pH 8.5-9.5), CAPS (pH 10.0-11.0). Metal Ion Response. The fluorescence spectra of zinc probes (ZincBY-2, ZincBY-3, or ZincBY-4; 200 nM) were measured in the presence an excess of metal ion including 1 mM KNO3, 1 mM NaNO3, 1 mM CaSO4, 1 mM MgSO4, 15 μM MnSO4, 15 μM (NH4)2Fe(SO4)2, 15 μM NH4Fe(SO4)2, 15 μM CoSO4, 15 μM NiSO4, 15 μM CuSO4, 15 μM [Cu(CH3CN)4]PF6, 15 μM CdSO4, 15 μM Hg(NO3)2, 15 μM Pb(NO3)2, or 15 μM ZnSO4. The fluorescence spectra were compared to that of ZincBY-2 (200 nM), ZincBY-3 (200 nM), or ZincBY-4 (200 nM) in the presence of 10 μM TPEN. Determination of octanol-water partition coefficients (log P). A log P value for each probe was determined by agitating nanomolar solutions of each probe in a 1:1 mixture of HEPES buffer and 1-octanol. Solutions were allowed to settle for 1 h and then the fluorescence intensity of each phase was measured. Standard curves of the fluorescence of known concentrations of probes in both solutions were used to determine concentrations.

Setting [1] is: remeasured, same as originally reported, state not specified.

As for `COc1ccc2n1[B-](F)(F)[N+]1=C(N(CCN(Cc3ccccn3)Cc3ccccn3)Cc3ccccn3)C=CC1=C2c1c(C)cc(C)cc1C` [ZincBY-1, reference compound], the “fluorescence turn-on in the presence of zinc” value is on record as 5.2 and the “turn-on ratio / increase in brightness in response to zinc” value is given as “ca. 5 fold”. Besides, under “Apo”, the “Brightness (ε*Φ/1000)” value is 5.21(72) M^−1cm^−1, the “Extinction Coefficient (ε)” value is on record as 2.42(33) × 10^4 M^−1cm^−1, the “Quantum Yield (Φ)” value was 0.215(5) and the “λEm (max)” value stood at 559 nm. Under “Apo (TPEN)”, the “λAbs (max)” value is reported as 529 nm. Also, where the note is “Zn-bound”, the “Brightness (ε*Φ/1000)” value is listed as 26.97(2.30) M^−1cm^−1; the “Extinction Coefficient (ε)” value is reported as 4.14(33) × 10^4 M^−1cm^−1; the “Quantum Yield (Φ)” value is 0.651(18) and 0.651(2); the “λAbs (max)” value is listed as 532 nm. Further, where the note is “Zn-bound”, the “λEm (max)” value came out at 543 nm. The “higher brightness on remeasurement compared to the originally reported values” (both apo and holo states) was 10 fold. Besides, under setting [1], the absorption wavelength came to 533 nm and the emission wavelength came to 543 nm.

For the molecule `Cc1cc(C)c(C2=C3C=CC(OCCN=[N+]=[N-])=[N+]3[B-](F)(F)n3c2ccc3N(CCN(Cc2ccccn2)Cc2ccccn2)Cc2ccccn2)c(C)c1` [ZincBY-2, N1-(7-(2-azidoethoxy)-5,5-difluoro-10-mesityl-5H-4λ4,5λ4-dipyrrolo[1,2-c:2′,1′-f][1,3,2]diazaborinin-3-yl)-N1,N2,N2-tris(pyridin-2-ylmethyl)ethane-1,2-diamine], where the note is “Apo”, the “Brightness (ε*Φ/1000)” value is listed as 2.35(58) M^−1cm^−1, the “Extinction Coefficient (ε)” value was 1.42(35) × 10^4 M^−1cm^−1, the “Quantum Yield (Φ)” value is 0.164(7) and the “λEm (max)” value turned out to be 566 nm. Besides, under “Apo (TPEN)”, the “λAbs (max)” value came out at 532 nm. For the setting “Zn-bound”, the “Brightness (ε*Φ/1000)” value is given as 13.58(1.93) M^−1cm^−1, the “Extinction Coefficient (ε)” value is recorded as 2.57(35) × 10^4 M^−1cm^−1, the “Quantum Yield (Φ)” value is listed as 0.529(22) and the “λAbs (max)” value was 532 nm. Moreover, where the note is “Zn-bound”, the “λEm (max)” value was 552 nm.

Regarding `Cc1cc(C)c(C2=C3C=CC(OCCN)=[N+]3[B-](F)(F)n3c2ccc3N(CCN(Cc2ccccn2)Cc2ccccn2)Cc2ccccn2)c(C)c1` [ZincBY-3, N1-(7-(2-aminoethoxy)-5,5-difluoro-10-mesityl-5H-4λ4,5λ4-dipyrrolo[1,2-c:2′,1′-f][1,3,2]diazaborinin-3-yl)-N1,N2,N2-tris(pyridin-2-ylmethyl)ethane-1,2-diamine], where the note is “Apo”, the “Brightness (ε*Φ/1000)” value was 1.85(8) M^−1cm^−1, the “Extinction Coefficient (ε)” value was 1.16(4) × 10^4 M^−1cm^−1, the “Quantum Yield (Φ)” value is 0.158(3) and the “λEm (max)” value is on record as 585 nm. Moreover, the “λAbs (max)” value (Apo (TPEN)) turned out to be 571 nm. Besides, where the note is “Zn-bound”, the “Brightness (ε*Φ/1000)” value is 12.42(36) M^−1cm^−1, the “Extinction Coefficient (ε)” value is reported as 2.21(5) × 10^4 M^−1cm^−1, the “Quantum Yield (Φ)” value is 0.562(11) and the “λAbs (max)” value stood at 482 nm. Also, the “λEm (max)” value (Zn-bound) is on record as 537 nm.

As for `CC(=O)NCCOc1ccc2n1[B-](F)(F)[N+]1=C(N(CCN(Cc3ccccn3)Cc3ccccn3)Cc3ccccn3)C=CC1=C2c1c(C)cc(C)cc1C` [ZincBY-4, N-(2-((7-((2-(bis(pyridin-2-ylmethyl)amino)ethyl)(pyridin-2-ylmethyl)amino)-5,5-difluoro-10-mesityl-5H-5λ4,6λ4-dipyrrolo[1,2-c:2′,1′-f][1,3,2]diazaborinin-3-yl)oxy)ethyl)acetamide], the “fluorescence turn-on in the presence of zinc” value is 8.4 and the “turn-on ratio / increase in brightness in response to zinc” value was found to be 8 fold. For the same molecule, where the note is “Apo”, the “Brightness (ε*Φ/1000)” value is reported as 1.44(7) M^−1cm^−1, the “Extinction Coefficient (ε)” value is listed as 0.88(4) × 10^4 M^−1cm^−1 and the “λEm (max)” value was 585 nm. The “λAbs (max)” value (Apo (TPEN)) amounted to 572 nm. Further, under “Zn-bound”, the “Brightness (ε*Φ/1000)” value was 12.15(34) M^−1cm^−1, the “Extinction Coefficient (ε)” value is 2.12(4) × 10^4 M^−1cm^−1, the “λAbs (max)” value came out at 482 nm and the “λEm (max)” value is given as 537 nm. In addition, where the note is “apo form”, the absorption peaks was 482 nm and 570 nm; the “quantum yield lower compared to ZincBY-1” value turned out to be 5%. Besides, the “quantum yield lower compared to ZincBY-1” value (holo form) stood at 10%.
